Source: patent publication US20080299123A1, “TREATMENT OF CHEMOTHERAPY- OR RADIOTHERAPY-RESISTANT TUMORS” (Deutsches Krebsforschungszentrum Stiftung des offentlichen …, priority 2006, published 2008)

Legend:
Type in all cases: cell-based, human
PT45-P1res cells = experiment: Caspase-3/-7 assay in PT45-P1res cells; conditions: for apoptosis induction after etoposide treatment (caspase-3/-7): inhibitor 10 μmol/L, 20 μg/mL etoposide 24 hours
Procedure: (a) PT45-P1 res cells were transfected with control siRNA or with two L1CAM specific siRNAs. Western blotting for the detection of full-length L1CAM or of HSP90 as a control for equal protein load was performed (upper panel). In parallel, siRNA transfected PT45-P1res cells were treated with 20 μg/mL etoposide or not for 24 hours and caspase-3/-7 activity was determined. (b) siRNA transfected PT45-P1res cells were subjected to L1CAM immunostaining (L1-11A antibody) or staining with an isotype matched control antibody followed by flow cytometry. One representative histogram is shown. (c) siRNA transfected PT45-P1res cells were analysed by western blotting for the detection of full-length L1 CAM, αv-integrin or HSP90 (d) After overnight siRNA transfection, cells were either left untreated or were either treated with 20 μg/mL etoposide or with 5 μg/mL gemcitabine for 24 hours, followed by either AnnexinV/PI staining and flow cytometry (AnnexinV positive cells over basal) or by caspase-3/-7 assay (n-fold induced caspase-3/-7 activity of basal). (e) PT45-P1res cells were either left untreated (w/o) or were treated with 20 μg/mL etoposide in the absence (w/o) or presence of either 5 μg/mL anti L1CAM antibody (Clone L1-11A) or 5 μg/mL isotype matched control antibody. After 24 hours, cells were analysed by AnnexinV/PI staining or by caspase-3/-7 assay. Means±SD from three independent experiments are shown. * indicates p<0.05.
(§1) As described elsewhere (Sebens Müerköster et al., 2006), apoptosis was determined by staining with annexinV/propidium iodide (Biocarta, Hamburg, Germany) and subsequent fluorescence flow cytometry (GalaxyArgon Plus; DAKO Cytomation, Hamburg, Germany) using the FLOMAX software, and by the detection of caspase-3/-7 activity using a homogeneous luminescent assay (Promega, Mannheim, Germany). All samples were measured in duplicates.
(§2) For L1CAM transfection, PT45-P1 cells were seeded into 6 well plates (2×10^5 cells/well), were grown overnight, followed by transfection with 5 μL/well DIMRIE reagent (Invitrogen) and 0.6 μg/well of the following plasmids: pcDNA3.1 (mock) or pcDNA3.1-L1CAM (L1CAM). Upon transfection for 18 hours, 1 mL medium containing 20% FCS was added and cells were left untreated or were treated as indicated for further 24 hours. For knock down of L1CAM, PT45-P1res cells were seeded into 12 well plates (1×10^5 cells/well), were grown overnight followed by transfection with 12 μL/well RNAiFect reagent (Invitrogen) and 2 μg/well of either Stealth negative control siRNA (Invitrogen) or Stealth L1CAM siRNA (Invitrogen). After overnight transfection, cells were either left untreated or treated as indicated for further 24 hours.

L1CAM [1] = experiment: L1CAM cleavage by western blotting in L1CAM transfected PT45-P1 cells; conditions: inhibitor 10 μmol/L, 24 hours
Procedure: (§3) PT45-P1res cells (a,b) or PT45-P1 cells transfected with L1CAM or an empty control vector (mock) (c,d) were left untreated (w/o) or were either treated with Tapi-0, Tapi-1, GM6001 or L685,458 (each 10 μmol/L) for 24 hours. (a,c) Cellular lysates were subjected to western blotting using either the antibody clone UJ127 from Acris detecting only full-length L1CAM or the pcytL1 antibody detecting also the cytoplasmic part of L1CAM. HSP90 was detected as a control for equal protein load. (b,d) Thirty minutes after treatment with the respective inhibitor, cells were either left untreated or treated with 20 μg/mL etoposide for 24 hours. Then, cells were analysed for caspase-3/-7 activity expressed as n-fold induction of caspase-3/-7 activity of basal. Means±SD from three independent experiments are shown. * indicates p<0.05.
(§4) Cells were seeded into 6 well and 12 well plates, respectively, and transfected or treated as indicated. Then, cells were washed once with PBS and lysed with 1 volume of 2×SDS sample buffer (128 mmol/L Tris-Base, 4.6% SDS, 10% glycerol). Samples were heated for 5 minutes at 95° C. and put on ice for 2 minutes. Protein concentrations were determined using the Dc Protein assay (BioRad). Ten μg of protein adjusted to an appropriate volume of SDS sample buffer containing 0.2 mg/mL bromphenolblue (Serva, Heidelberg, Germany) and 2.5% β-mercaptoethanol (Biomol, Hamburg, Germany) were submitted to electrophoresis on a 4-20% ProGel-Tris-glycin-gel (Anamed, Darmstadt, Germany) and immunoblotting was performed as described previously (Arlt et al, 2001). For detection of L1CAM, a monoclonal antibody (clone UJ127 from Acris Antibodies) was diluted at a concentration of 0.4 μg/mL in 5% nonfat milk powder and 0.05% Tween in TBS (blotto) and incubated overnight at 4° C. For detection of the cytoplasmic domain of L1CAM, the pcytL1 antibody (Mechtersheimer et al., 2001) was used at a concentration of 1 μg/mL in blotto and incubated overnight at 4° C. As control of equal protein load, a polyclonal rabbit antibody for HSP90 (Santa Cruz, Heidelberg, Germany) was diluted 1:2000 in blotto. The mouse anti CD51 antibody from Beckman Coulter GmbH (Krefeld, Germany) was used at a concentration of 1:500 in blotto for detection of human αv integrin. Incubation with the primary antibodies was performed overnight at 4° C. For detection of the primary antibodies, anti-mouse and anti-rabbit HRP-linked antibodies (Cell Signaling), respectively, were used at a dilution of 1:2000 in blotto-TBST at room temperature for 1 hour. After washing in TBST, blots were developed using the LumiGlo peroxidase detection kit (Cell Signaling).

[2] = tested on: L1CAM transfected PT45-P1 cells; experiment: Caspase-3/-7 assay in L1CAM transfected PT45-P1 cells; conditions: inhibitor 10 μmol/L, 20 μg/mL etoposide 24 hours
Procedure: as §3, §1, §2

L1CAM [3] = experiment: L1CAM expression in PT45-P1res cells (western blotting, flow cytometry, real-time PCR); conditions: for L1CAM expression (full-length 220 kDa and 32 kD fragment): inhibitor 10 μmol/L, 24 hours
Procedure: After washing in PBS, cells grown in 6-well culture plates were detached with 5 mmol/L EDTA in PBS and then washed with PBS once again. Blocking was conducted in 1% BSA/PBS for 60 min. at room temperature followed by incubation with the anti L1CAM antibody L1-11A or an isotype matched control antibody (1:1000, in 1% BSA/PBS) at 4° C. overnight. Then, cells were washed three times in PBS followed by incubation (60 min, 37° C.) with a goat-anti mouse antibody conjugated with Alexa flour 488 (Dianova, Hamburg, Germany) diluted 1:500 in 1% BSA/PBS. After washing in PBS, cells were resuspended in 500 μL PBS and analysed by fluorescence flow cytometry.
as §4
2 μg of total RNA were reverse-transcribed into single-stranded cDNA, as described previously (Schafer et al., 1999). Two μL of cDNA and 0.2 μmol/L gene-specific primers were adjusted with RNAse-free water to a volume of 15 μL. To this mixture, 15 μL of iQ SYBR Green Supermix (BioRad) were added. Primers for the detection of L1CAM (Gavert et al., 2005) were used under the following conditions: 95° C./1 min; 95° C./1 min, 52° C./30 see, 72° C./30 see for 40 cycles; 72° C./10 min. Primers for the detection of iNOS were from Biosource (Ratingen, Germany) and used under the following PCR conditions: 95° C./5 min; 95° C./45 sec, 60° C./45 sec, 72° C./45 sec for 40 cycles; 72° C./10 min. For control, β-actin was amplified in parallel using primers from BD Biosciences Clontech. […] Data were collected during annealing steps and were further analysed by using the i-Cycler iQ Optical system software (BioRad). All samples were analysed in duplicates and data are expressed as amount of mRNA in arbitrary units.

NO release = experiment: NO-assay in supernatants of PT45-P1res cells; conditions: 250 ng/mL IL1-RA 24 hours
Procedure: PT45-P1res cells were transfected with a control siRNA or with a L1CAM specific siRNA. (a) RNA from transfected PT45-P1res cells was subjected to RT and subsequent Real-time PCR using primers specific for iNOS. In parallel, a Real-time PCR was conducted for β-actin, which was used as a control. Results from one representative out of three experiments are shown. Data are expressed as amount of mRNA in arbitrary units. Each sample was measured in duplicates. (b) siRNA transfected cells (16 h) were either left untreated or were treated with 250 ng/mL IL1RA for 24 hours. Then, supernatants were cleared and subjected to a commercial NO assay. The amount of NO was normalized to equal cell number which was determined in parallel (expressed as μmol NO/10^5 cells). (c) siRNA transfected cells (16 h) were either left untreated or were treated with 250 ng/mL IL1-RA and 20 μg/mL etoposide, either alone or in combination for 24 hours. Then, cells were analysed for caspase-3/-7 activity expressed as n-fold induced caspase-3/-7 activity of basal. Means±SD from three independent experiments are shown. * indicates p<0.05.
Cells were seeded for transfection and cultured as described above. […] NO secreted into cell culture supernatants was quantified using the Total nitric oxide (NO) calorimetric assay (R&D Systems). […] Concentrations of measured NO were normalized to the cell numbers determined in parallel.

[4] = Induction of apoptosis, Nicoletti staining, in HEK293 cells; conditions: human; wild-type (parental) HEK293; C2-ceramide 40 μM or staurosporine 2 μM, 24 h, serum-free, Nicoletti staining; read-out: cells still viable after treatment
Procedure: (§5) Cells (1×10^5 cells per well) were cultured in duplicate in 6 well culture plates and, after washing once with PBS, incubated for the indicated timepoints with or without apoptotic stimuli in serum-free medium. Staurosporine (2 μM), C2-ceramide (40 μM) or cisplatin (17 μM) were used as apoptotic reagents. For hypoxia studies, cells were incubated for different time points under hypoxic conditions (1% O2) using a Reming Bioinstruments chamber and oxygen regulator (Reming Bioinstruments, Redfield, N.Y.).
(§6) For quantification of DNA fragmentation, supernatants were centrifuged at 200×g. The cell pellet was washed once in PBS (pH 7.4) and lysed in a hypotonic lysis buffer (0.1% sodium citrate, 0.1% Triton X-100, 50 μg/ml propidiumiodite) at 4° C. overnight. The nuclei were then analyzed for DNA content by flow cytometry. The staining of cells for flow cytometry with mAbs and PE-conjugated secondary antibodies has been described. Cells were analysed with a FACScan using Cellquest or FlowJo software from Becton Dickinson (Heidelberg, Germany).

[5] = Induction of apoptosis, Nicoletti staining, in HEK293-hL1 cells; conditions: human; L1-expressing HEK293; C2-ceramide 40 μM or staurosporine 2 μM, 24 h, serum-free, Nicoletti staining; read-out: cells still viable after treatment
Procedure: as §5, §6

CC(C)C[C@H](NC(=O)[C@H](Cc1ccccc1)C[C@@H](O)[C@H](Cc1ccccc1)NC(=O)OC(C)(C)C)C(=O)N[C@@H](Cc1ccccc1)C(N)=O [L685,458]
apoptosis induction after etoposide treatment (caspase-3/-7) (PT45-P1res cells): did not significantly affect apoptosis induction after etoposide treatment | expression of full-length L1CAM and level of the 32 kD fragment (L1CAM [1]): did neither influence the expression of full-length L1CAM nor increased the level of the 32 kD fragment | apoptosis inducing effect of etoposide (caspase-3/-7) [2]: nor affect the apoptosis inducing effect of etoposide | L1CAM expression (full-length 220 kDa and 32 kD fragment) (L1CAM [3]): neither of the inhibitors changed L1 CAM expression

IL1-RA: Interleukin 1 receptor antagonist from R&D Systems
etoposide induced caspase activation (PT45-P1res cells; 250 ng/mL IL1-RA, control transfected cells): increased | NO levels (NO release; cells with L1CAM knock down): no further reducing effect | NO levels (NO release; control siRNA transfected cells): could be decreased | L1CAM expression (mRNA and protein) (L1CAM [3]; 250 ng/mL IL1-RA, 6 or 24 hours): reduced L1CAM expression

CNC(=O)[C@H](Cc1c[nH]c2ccccc12)NC(=O)[C@@H](CC(=O)NO)CC(C)C [GM6001]
apoptosis induction after etoposide treatment (caspase-3/-7) (PT45-P1res cells): did not significantly affect apoptosis induction after etoposide treatment | expression of full-length L1CAM and level of the 32 kD fragment (L1CAM [1]): did neither influence the expression of full-length L1CAM nor increased the level of the 32 kD fragment | apoptosis inducing effect of etoposide (caspase-3/-7) [2]: nor affect the apoptosis inducing effect of etoposide | L1CAM expression (full-length 220 kDa and 32 kD fragment) (L1CAM [3]): neither of the inhibitors changed L1 CAM expression

CC(C)C[C@H](CC(=O)NO)C(=O)N[C@@H](Cc1ccc2ccccc2c1)C(=O)N[C@@H](C)C(=O)NCCN [Tapi-1]
apoptosis induction after etoposide treatment (caspase-3/-7) (PT45-P1res cells): did not significantly affect apoptosis induction after etoposide treatment | expression of full-length L1CAM and level of the 32 kD fragment (L1CAM [1]): did neither influence the expression of full-length L1CAM nor increased the level of the 32 kD fragment | apoptosis inducing effect of etoposide (caspase-3/-7) [2]: nor affect the apoptosis inducing effect of etoposide | L1CAM expression (full-length 220 kDa and 32 kD fragment) (L1CAM [3]): neither of the inhibitors changed L1 CAM expression

CC(=O)NC(C(=O)O)C(C)(C)SN=O (racemic) [SNAP, S-Nitroso-N-acetyl-D,L-penicillamine]
increased caspase activity during L1CAM knock-down (PT45-P1res cells; 200 μmol/L SNAP with 20 μg/mL etoposide, 24 hours): completely reversed the increased caspase activity

CN[C@@H]1C[C@H]2O[C@@](C)([C@@H]1OC)n1c3ccccc3c3c4c(c5c6ccccc6n2c5c31)C(=O)NC4 [staurosporine]
viability at 24 h, 2 μM [4]: 59% | viability at 24 h, 2 μM [5]: 77%
